The values below come from article PMC9661480, “Discovery and Optimization of Indoline-Based Compounds as Dual 5-LOX/sEH Inhibitors: In Vitro and In Vivo Anti-Inflammatory Characterization” (Journal of Medicinal Chemistry, 2022).

In one data set the target is T1, human recombinant sEH (Homo sapiens, UniProt P34913).
T1 construct: made in house; host or cells: Sf9 insect cells (recombinant baculovirus)
T1 sequence (P34913 1-555): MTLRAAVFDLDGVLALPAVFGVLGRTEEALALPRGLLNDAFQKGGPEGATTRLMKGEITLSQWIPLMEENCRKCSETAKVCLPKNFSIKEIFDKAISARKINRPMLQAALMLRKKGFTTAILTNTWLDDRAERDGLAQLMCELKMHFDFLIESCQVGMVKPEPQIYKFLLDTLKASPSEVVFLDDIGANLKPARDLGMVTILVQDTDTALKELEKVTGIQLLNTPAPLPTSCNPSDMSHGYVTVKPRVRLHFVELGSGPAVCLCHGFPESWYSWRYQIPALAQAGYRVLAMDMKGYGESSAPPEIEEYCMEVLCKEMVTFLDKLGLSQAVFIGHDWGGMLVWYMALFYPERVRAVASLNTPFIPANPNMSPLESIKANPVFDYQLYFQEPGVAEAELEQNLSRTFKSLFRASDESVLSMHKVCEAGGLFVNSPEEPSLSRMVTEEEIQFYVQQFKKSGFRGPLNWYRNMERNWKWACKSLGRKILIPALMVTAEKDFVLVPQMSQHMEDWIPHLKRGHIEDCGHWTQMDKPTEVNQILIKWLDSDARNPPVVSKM
The data set is described as follows: sEH activity assay (PHOME substrate). The data set is classed as biochemical. To be noted: Table 2; human isolated sEH; mean ± SEM.

The next data set deals with T2, 5-LOX (Homo sapiens, UniProt P09917).
T2 sequence (P09917 1-674): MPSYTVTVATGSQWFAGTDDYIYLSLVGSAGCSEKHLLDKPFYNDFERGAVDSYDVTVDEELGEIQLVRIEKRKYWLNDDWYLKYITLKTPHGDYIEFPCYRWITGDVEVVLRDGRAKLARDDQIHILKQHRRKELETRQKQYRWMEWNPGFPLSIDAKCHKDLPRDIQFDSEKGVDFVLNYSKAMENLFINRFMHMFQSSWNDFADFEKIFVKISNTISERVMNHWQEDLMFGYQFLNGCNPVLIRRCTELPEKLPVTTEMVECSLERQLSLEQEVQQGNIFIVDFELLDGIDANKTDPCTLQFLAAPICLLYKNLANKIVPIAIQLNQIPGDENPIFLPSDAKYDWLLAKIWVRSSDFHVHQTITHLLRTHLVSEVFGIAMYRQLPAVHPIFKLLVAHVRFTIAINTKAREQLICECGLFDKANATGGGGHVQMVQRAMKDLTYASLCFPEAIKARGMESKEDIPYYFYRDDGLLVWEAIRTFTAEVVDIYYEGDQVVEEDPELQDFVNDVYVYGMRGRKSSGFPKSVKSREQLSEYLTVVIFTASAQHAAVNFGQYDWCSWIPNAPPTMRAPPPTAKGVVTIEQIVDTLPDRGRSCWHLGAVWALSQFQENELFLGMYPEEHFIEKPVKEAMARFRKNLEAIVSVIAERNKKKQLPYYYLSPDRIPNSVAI
The data set is described as follows: Cell-free 5-LOX activity assay. The data set is classed as biochemical. Further details: made in house; host or cells: Escherichia coli Bl21 (DE3). To be noted: Table 2; human isolated 5-LOX; mean ± SEM.

Data set [1] can be described thus: In vivo plasma levels of 73. The note with it: mouse, ip, mean ±SD.

Bounds are passed on as bounds.

Turning to “1-(1-(4-Aminobutyl)indolin-5-yl)-3-neopentylthiourea [compound 51]”, the IC50 at human recombinant sEH and on 5-LOX was above 10 µM throughout.

For “4-(3-(1-(4-Fluorobenzyl)indolin-5-yl)thioureido)benzoic Acid [compound 58]”, the concentration for half-maximal inhibition (IC50) – broadly, the concentration that inhibits the measured activity by half – at human recombinant sEH is above 10 µM.

On to `CC(C)(C)CNC(=S)Nc1ccc2c(c1)CCN2Cc1ccc(N=O)cc1` [compound 73, 1-Neopentyl-3-(1-(4-nitrosobenzyl)indolin-5-yl)thiourea], for which the concentration at 0.5 h in data set [1] (0.5 h after 10 mg Kg-1 intraperitoneal) is 15.4 ± 2.5 ng/mL. The same compound had a concentration at 1 h in data set [1] (1 h after 10 mg Kg-1 intraperitoneal) of 12.3 ± 0.9 ng/mL. The same compound gave a concentration at 2 h in data set [1] (2 h after 10 mg Kg-1 intraperitoneal) of 10.6 ± 0.6 ng/mL. In addition, the concentration at 4 h in data set [1] (4 h after 10 mg Kg-1 intraperitoneal) worked out at 1.1 ± 0.1 ng/mL.
